Results: patent US11033642B2, “Multidentate bifunctional chelating agents for radionuclide complexation in diagnostics and therapy” (UNIVERSITAT ZURICH, priority 2014, dated 2021)

Test: Solubility observed during complexation
Assay type: physicochemical
Protocol: Ligand II is not soluble either in 0.1 M HCl or in H2O. The complexation was carried out in MeOH using zirconium (IV) acetylacetonate [Zr(acac)4]. A mixture of ligand II (50 mg, 0.058 mmol) and Zr(acac)4 (28.3 mg, 0.058 mmol) in 15 mL MeOH was heated at reflux for 15 h with continuous stirring under N2 atmosphere. The solvent was then removed and the residue was then washed with Et2O (20 mL) and acetone (10 mL). The compound was obtained as off white solid (48 mg, 87%). The compound is it not soluble in common organic solvents including DMSO. […] Therefore due to the limited solubility NMR spectra of the compound could not be obtained. However, the formation of the complex can be confirmed using LC-MS. Elemental analysis calculated for C38H64N8O14Zr.6H2O.(CH3)2CO3C, 44.19, H, 7.42, N, 10.06. Found C, 44.11, H, 7.04, N, 10.16.

In the case of CC(=O)N(O)CCCCCNC(=O)CCC(=O)N(O)CCCCCNC(=O)CCC(=O)N(O)CCCCCNC(=O)CCC(=O)N(O)CCCCCNC(=O)CCC(=O)O [Ligand II, 4-[5-[[4-[5-[[4-[5-[[4-[5-[acetyl(hydroxy)amino]pentylamino]-4-oxo-butanoyl]-hydroxy-amino]pentylamino]-4-oxo-butanoyl]-hydroxy-amino]pentylamino]-4-oxo-butanoyl]-hydroxy-amino]pentylamino]-4-oxo-butanoic acid], the “solubility in 0.1 M HCl” value (0.1 M HCl) is reported as “not soluble” and the “solubility in H2O” value (H2O) is reported as “not soluble”.
